Tests used:
rec-CgHMGR (CgHMGR) [1] = target: T1, rec-CgHMGR (CgHMGR) (Nakaseomyces glabratus, UniProt Q6FKH6); test: NADPH oxidation at […] nm; type: biochemical; details: read-out: Inhibition (% of Relative Activity) *
T1 construct: gene HMG1; transmembrane region removed), pPICZB, His-tagged, expressed in Pichia pastoris X-33, Ni-NTA purified, approx. 48 kDa by SDS-PAGE
T1 sequence (Q6FKH6 619-1056 limits assumed): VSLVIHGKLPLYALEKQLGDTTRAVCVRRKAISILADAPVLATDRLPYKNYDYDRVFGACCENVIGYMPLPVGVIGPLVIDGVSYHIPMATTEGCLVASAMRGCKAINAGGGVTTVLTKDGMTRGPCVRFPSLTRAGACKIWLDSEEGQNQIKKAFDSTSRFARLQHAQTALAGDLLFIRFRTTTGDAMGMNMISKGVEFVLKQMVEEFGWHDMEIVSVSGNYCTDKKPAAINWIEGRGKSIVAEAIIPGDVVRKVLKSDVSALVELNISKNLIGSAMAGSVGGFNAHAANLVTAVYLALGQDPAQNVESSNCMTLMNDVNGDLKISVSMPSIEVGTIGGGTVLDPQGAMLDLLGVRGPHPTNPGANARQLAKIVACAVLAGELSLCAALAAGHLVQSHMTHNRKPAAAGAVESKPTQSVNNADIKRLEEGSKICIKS

rec-CgHMGR (CgHMGR) [2] = target: T1, rec-CgHMGR (CgHMGR); test: NADPH oxidation at […] nm; type: biochemical; details: HMG-CoA, 50 mM Tris-HCl pH 8.0, 37 °C

## CCCc1cc(OC)c(OCC(=O)OC)cc1[N+](=O)[O-] [1a]
rec-CgHMGR (CgHMGR) [1]
  inhibition at 100 µM: 73 ± 1.52%

## CCCc1cc(OC)c(OCC(=O)OC)cc1O [1b]
rec-CgHMGR (CgHMGR) [1]
  inhibition at 100 µM: 89 ± 1.24%

## CCc1ccc(OCC(=O)OC)c([N+](=O)[O-])c1 [6g]
rec-CgHMGR (CgHMGR) [1]
  inhibition at 100 µM: 86 ± 3.21%

## CCCc1cc(OC)c(OC)cc1O [7a]
rec-CgHMGR (CgHMGR) [1]
  inhibition at 100 µM: 66 ± 2.08%

## NC(=O)C1=CN([C@@H]2O[C@H](COP(=O)(O)OP(=O)(O)OC[C@H]3O[C@@H](n4cnc5c(N)ncnc54)[C@H](OP(=O)(O)O)[C@@H]3O)[C@@H](O)[C@H]2O)C=CC1 [NADPH]
rec-CgHMGR (CgHMGR) [2]
  NADPH oxidation at 340 nm: converted into its oxidized form by the catalytic subunit of HMGR in the presence of HMG-CoA
